By IC50 is commonly meant the concentration that gives 50% inhibition. Lower therefore signals greater potency.

This note sets out measurements from ChEMBL document CHEMBL4819128, “Discovery of indoline derivatives as anticancer agents via inhibition of tubulin polymerization” (Bioorg Med Chem Lett, 2021).

Calls of active or inactive are those of the source. No cut-off for these calls is given here.

The subject of one experiment is MGC-803. Description: Antiproliferative activity against human MGC-803 cells incubated for 48 hrs by CCK8 assay. The settings on record: MGC-803, 48 h. In kind it is functional, cell-based. (In general: Formazan colour is commonly taken as a measure of viable cells.)
Experiment [1] addresses T1, Tubulin (Homo sapiens) (UniProt P68371+Q9H4B7+P0DPH7+P68366+Q13509+Q71U36+P04350+Q3ZCM7+P07437+P68363+Q9BQE3+Q6PEY2+Q13885+Q9BVA1+Q9BUF5). Description: Inhibition of tubulin polymerization in human KYSE-30 cells assessed as reduction in cell viability. In kind it is cell-based.
The target in experiment [2] is T1, Tubulin (Homo sapiens). Description: […] of tubulin polymerization in human KYSE-450 cells assessed as inhibition of cell growth after 48 hrs relative to control. In kind it is cell-based.
Experiment [3] relates to KYSE-450. Description: Inhibition of colony formation in human KYSE-450 cells at 0.188 to 0.313 uM after 7 days by crystal violet staining based assay. In kind it is functional, cell-based. The settings on record: dose 0.188-0.313 µM, time 7.0 day.
For experiment [4], the target named is T1, Tubulin (Homo sapiens). Description: Inhibition of tubulin polymerization in human KYSE-30 cells by immunofluorescence assay. In kind it is cell-based.
Experiment [5] addresses T1, Tubulin (Homo sapiens). Description: Inhibition of tubulin polymerization in human KYSE-450 cells assessed as reduction in cell viability upto 48 hrs. In kind it is cell-based. The settings on record: time hrs <=48, TDE = time-dependent effect.
In experiment [6] the test system is KYSE-450. Description: Induction of cell morphological changes in human KYSE-450 cells measured after 48 hrs. The class given is functional, cell-based.
Experiment [7] concerns the target T1, Tubulin (Homo sapiens). Description: Inhibition of tubulin polymerization in human KYSE-30 cells at 1.25 uM by immunofluorescence assay. In kind it is cell-based.
Experiment [8] concerns the target Tubulin beta (Homo sapiens) (UniProt P68371+Q9H4B7+Q13509+P04350+Q3ZCM7+P07437+Q13885+Q9BVA1+Q9BUF5+A6NNZ2). Description: Binding affinity to beta-tubulin colchicine binding site in human KYSE-30 cells assessed as inhibition of tubulin-EBI adduct formation by EBI addition by Western blotting analysis. The class given is cell-based.

`O=C(Cc1ccccc1)N1CCc2cc(Br)ccc21` yielded an IC50 in the experiment on MGC-803 of 32.8 µM.
On to `COc1cc(C(=O)N2CCc3cc(Br)ccc32)cc(OC)c1OC`, for which the inhibition result was “Dose-Dependent Effect” at Tubulin (Homo sapiens) [1], “Dose-Dependent Effect” at Tubulin (Homo sapiens) [4] and “Tde” at Tubulin (Homo sapiens) [5]. Besides, the Activity entry on Tubulin (Homo sapiens) [2] was “Dose-Dependent Effect”. Moreover, the inhibition entry with KYSE-450 [3] and on Tubulin (Homo sapiens) [7] was “Active” throughout. Besides, the result (in the experiment with KYSE-450 [6]; in experiment [8]) was Active.
